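Cells were grown in 96-well plates and exposed to each compound for 48 hours at five concentrations; endpoints were interpolated linearly between bracketing concentrations, or set to the highest concentration if not reached. TGI: total growth inhibition.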
Legend:
Test in all cases: NCI-60 cell line screen, 48 h
786-0 renal = tested on: 786-0 renal
A498 renal = tested on: A498 renal
A549 NSCLC = tested on: A549 NSCLC
ACHN renal = tested on: ACHN renal
BT-549 breast = tested on: BT-549 breast
CAKI-1 renal = tested on: CAKI-1 renal
CCRF-CEM leukemia = tested on: CCRF-CEM leukemia
COLO 205 colon = tested on: COLO 205 colon
DU-145 prostate = tested on: DU-145 prostate
EKVX NSCLC = tested on: EKVX NSCLC
HCT-116 colon = tested on: HCT-116 colon
HCT-15 colon = tested on: HCT-15 colon
HL-60(TB) leukemia = tested on: HL-60(TB) leukemia
HOP-62 NSCLC = tested on: HOP-62 NSCLC
HOP-92 NSCLC = tested on: HOP-92 NSCLC
HS 578T breast = tested on: HS 578T breast
HT29 colon = tested on: HT29 colon
IGROV1 ovarian = tested on: IGROV1 ovarian
KM12 colon = tested on: KM12 colon
LOX IMVI melanoma = tested on: LOX IMVI melanoma
M14 melanoma = tested on: M14 melanoma
MALME-3M melanoma = tested on: MALME-3M melanoma
MCF7 breast = tested on: MCF7 breast
MDA-MB-231 breast = tested on: MDA-MB-231 breast
MDA-MB-435 = tested on: MDA-MB-435
MDA-N = tested on: MDA-N
MOLT-4 leukemia = tested on: MOLT-4 leukemia
NCI-H226 lung = tested on: NCI-H226 lung
NCI-H23 lung = tested on: NCI-H23 lung
NCI-H460 lung = tested on: NCI-H460 lung
NCI-H522 lung = tested on: NCI-H522 lung
NCI/ADR-RES ovarian = tested on: NCI/ADR-RES ovarian
OVCAR-3 ovarian = tested on: OVCAR-3 ovarian
OVCAR-4 ovarian = tested on: OVCAR-4 ovarian
OVCAR-5 ovarian = tested on: OVCAR-5 ovarian
OVCAR-8 ovarian = tested on: OVCAR-8 ovarian
PC-3 prostate = tested on: PC-3 prostate
SF-268 CNS = tested on: SF-268 CNS
SF-295 CNS = tested on: SF-295 CNS
SF-539 CNS = tested on: SF-539 CNS
SK-MEL-2 melanoma = tested on: SK-MEL-2 melanoma
SK-MEL-28 melanoma = tested on: SK-MEL-28 melanoma
SK-MEL-5 melanoma = tested on: SK-MEL-5 melanoma
SK-OV-3 ovarian = tested on: SK-OV-3 ovarian
SN12C renal = tested on: SN12C renal
SNB-19 CNS = tested on: SNB-19 CNS
SNB-75 CNS = tested on: SNB-75 CNS
SW-620 colon = tested on: SW-620 colon
T-47D breast = tested on: T-47D breast
TK-10 renal = tested on: TK-10 renal
U251 CNS = tested on: U251 CNS
UACC-257 melanoma = tested on: UACC-257 melanoma
UACC-62 melanoma = tested on: UACC-62 melanoma
UO-31 renal = tested on: UO-31 renal
HCC-2998 colon = tested on: HCC-2998 colon
K-562 leukemia = tested on: K-562 leukemia
RPMI-8226 leukemia = tested on: RPMI-8226 leukemia
RXF 393 renal = tested on: RXF 393 renal

`CC1=C2C(=O)NN=C2CCN1c1ccc(Br)cc1` showed a TGI (786-0 renal) of over 100 µM, a TGI (A498 renal) of over 100 µM and a TGI (A549 NSCLC) of over 100 µM. The TGI (ACHN renal) was over 100 µM, the TGI (BT-549 breast) was 75.1 µM and the TGI (CAKI-1 renal) was over 100 µM. For the same compound, the TGI (CCRF-CEM leukemia) was 8.26 µM, the TGI (COLO 205 colon) was over 100 µM and the TGI (DU-145 prostate) was over 100 µM. The TGI (EKVX NSCLC) was over 100 µM, the TGI (HCT-116 colon) was over 100 µM and the TGI (HCT-15 colon) was over 100 µM. It also gave a TGI (HL-60(TB) leukemia) of over 100 µM, a TGI (HOP-62 NSCLC) of over 100 µM and a TGI (HOP-92 NSCLC) of over 100 µM. It also gave a TGI (HS 578T breast) of over 100 µM, a TGI (HT29 colon) of over 100 µM and a TGI (IGROV1 ovarian) of over 100 µM. The TGI (KM12 colon) was over 100 µM, the TGI (LOX IMVI melanoma) was over 100 µM and the TGI (M14 melanoma) was over 100 µM. For the same compound, the TGI (MALME-3M melanoma) was over 100 µM, the TGI (MCF7 breast) was over 100 µM and the TGI (MDA-MB-231 breast) was over 100 µM. It also gave a TGI (MDA-MB-435) of over 100 µM, a TGI (MDA-N) of over 100 µM and a TGI (MOLT-4 leukemia) of over 100 µM. For the same compound, the TGI (NCI-H226 lung) was over 100 µM, the TGI (NCI-H23 lung) was over 100 µM and the TGI (NCI-H460 lung) was over 100 µM. It also gave a TGI (NCI-H522 lung) of over 100 µM, a TGI (NCI/ADR-RES ovarian) of over 100 µM and a TGI (OVCAR-3 ovarian) of over 100 µM. The TGI (OVCAR-4 ovarian) was over 100 µM, the TGI (OVCAR-5 ovarian) was over 100 µM and the TGI (OVCAR-8 ovarian) was over 100 µM. The TGI (PC-3 prostate) was over 100 µM, the TGI (SF-268 CNS) was over 100 µM and the TGI (SF-295 CNS) was over 100 µM. For the same compound, the TGI (SF-539 CNS) was over 100 µM, the TGI (SK-MEL-2 melanoma) was over 100 µM and the TGI (SK-MEL-28 melanoma) was over 100 µM. For the same compound, the TGI (SK-MEL-5 melanoma) was over 100 µM, the TGI (SK-OV-3 ovarian) was over 100 µM and the TGI (SN12C renal) was over 100 µM. For the same compound, the TGI (SNB-19 CNS) was over 100 µM, the TGI (SNB-75 CNS) was over 100 µM and the TGI (SW-620 colon) was over 100 µM. The TGI (T-47D breast) was over 100 µM, the TGI (TK-10 renal) was over 100 µM and the TGI (U251 CNS) was over 100 µM. For the same compound, the TGI (UACC-257 melanoma) was over 100 µM, the TGI (UACC-62 melanoma) was over 100 µM and the TGI (UO-31 renal) was over 100 µM.
For `Cc1ccc(C(=O)Nc2ccc(CP(=O)(O)O)cc2CP(=O)(O)O)cc1NC(=O)c1cccc(N)c1`, the TGI (786-0 renal) was over 100 µM, the TGI (A498 renal) was over 100 µM and the TGI (A549 NSCLC) was over 100 µM. It also gave a TGI (ACHN renal) of over 100 µM, a TGI (BT-549 breast) of over 100 µM and a TGI (CAKI-1 renal) of over 100 µM. For the same compound, the TGI (CCRF-CEM leukemia) was over 100 µM, the TGI (COLO 205 colon) was over 100 µM and the TGI (DU-145 prostate) was over 100 µM. The TGI (EKVX NSCLC) was over 100 µM, the TGI (HCC-2998 colon) was over 100 µM and the TGI (HCT-116 colon) was over 100 µM. The TGI (HCT-15 colon) was over 100 µM, the TGI (HL-60(TB) leukemia) was over 100 µM and the TGI (HOP-62 NSCLC) was over 100 µM. It also gave a TGI (HS 578T breast) of over 100 µM, a TGI (HT29 colon) of over 100 µM and a TGI (IGROV1 ovarian) of over 100 µM. For the same compound, the TGI (K-562 leukemia) was over 100 µM, the TGI (KM12 colon) was over 100 µM and the TGI (LOX IMVI melanoma) was over 100 µM. For the same compound, the TGI (M14 melanoma) was over 100 µM, the TGI (MALME-3M melanoma) was over 100 µM and the TGI (MCF7 breast) was over 100 µM. The TGI (MDA-MB-231 breast) was over 100 µM, the TGI (MDA-MB-435) was over 100 µM and the TGI (MDA-N) was over 100 µM. The TGI (MOLT-4 leukemia) was over 100 µM, the TGI (NCI-H226 lung) was over 100 µM and the TGI (NCI-H23 lung) was over 100 µM. The TGI (NCI-H460 lung) was over 100 µM, the TGI (NCI-H522 lung) was over 100 µM and the TGI (NCI/ADR-RES ovarian) was over 100 µM. For the same compound, the TGI (OVCAR-3 ovarian) was over 100 µM, the TGI (OVCAR-4 ovarian) was over 100 µM and the TGI (OVCAR-5 ovarian) was over 100 µM. For the same compound, the TGI (OVCAR-8 ovarian) was over 100 µM, the TGI (PC-3 prostate) was over 100 µM and the TGI (RPMI-8226 leukemia) was over 100 µM. It also gave a TGI (RXF 393 renal) of over 100 µM, a TGI (SF-268 CNS) of over 100 µM and a TGI (SF-295 CNS) of over 100 µM. For the same compound, the TGI (SF-539 CNS) was over 100 µM, the TGI (SK-MEL-2 melanoma) was over 100 µM and the TGI (SK-MEL-28 melanoma) was over 100 µM. It also gave a TGI (SK-MEL-5 melanoma) of over 100 µM, a TGI (SK-OV-3 ovarian) of over 100 µM and a TGI (SN12C renal) of over 100 µM. For the same compound, the TGI (SNB-75 CNS) was over 100 µM, the TGI (SW-620 colon) was over 100 µM and the TGI (T-47D breast) was over 100 µM. For the same compound, the TGI (TK-10 renal) was over 100 µM, the TGI (U251 CNS) was over 100 µM and the TGI (UACC-257 melanoma) was over 100 µM. It also gave a TGI (UACC-62 melanoma) of over 100 µM and a TGI (UO-31 renal) of over 100 µM.
